Experimental data as given in the NIST ThermoML archive (doi:10.1021/je060107n).

Test: mn = molality of the nth substance listed, in mol/kg
Settings: 101 kPa, Liquid; for viscosity: Capillary tube (Ostwald / Ubbelohde) method; for speed of sound: Linear variable-path acoustic interferometer

O=[N+]([O-])[O-].O=[N+]([O-])[O-].[Mg+2] [magnesium nitrate] + O
Settings | speed of sound, 273.15 K [m/s] | speed of sound, 278.15 K [m/s] | speed of sound, 283.15 K [m/s] | speed of sound, 288.15 K [m/s] | speed of sound, 293.15 K [m/s] | viscosity, 273.15 K [mPa·s] | viscosity, 278.15 K [mPa·s] | viscosity, 283.15 K [mPa·s] | viscosity, 288.15 K [mPa·s] | viscosity, 293.15 K [mPa·s]
m1 = 0.0145 | 1410.5 | 1434.8 | 1449.2 | 1471.7 | 1484.3 | 1.852 | 1.556 | 1.339 | 1.164 | 1.021
m1 = 0.0528 | 1415.6 | 1438.7 | 1458.5 | 1477.1 | 1486.7 | 1.874 | 1.58 | 1.357 | 1.18 | 1.038
m1 = 0.2491 | 1430.4 | 1451.6 | 1470.7 | 1487.6 | 1501.9 | 1.958 | 1.654 | 1.429 | 1.244 | 1.092
m1 = 0.3405 | 1443 | 1456.8 | 1475.6 | 1491.5 | 1507 | – | – | – | – | –
m1 = 0.5931 | – | – | – | – | – | 2.122 | 1.805 | 1.564 | 1.367 | 1.209
m1 = 0.6173 | 1469.3 | 1486.9 | 1503.7 | 1517.8 | 1530.1 | – | – | – | – | –
m1 = 0.896 | 1498.6 | 1514.8 | 1529 | 1541.2 | 1553.1 | – | – | – | – | –
m1 = 0.9898 | 1510.3 | 1524.8 | 1538.8 | 1550.4 | 1561.5 | 2.391 | 2.047 | 1.775 | 1.554 | 1.378
m1 = 1.262 | 1538 | 1551.3 | 1563.1 | 1573.8 | 1582.5 | 2.659 | 2.268 | 1.971 | 1.727 | 1.53
m1 = 1.525 | 1566.3 | 1577.1 | 1587.6 | 1596.3 | 1604.4 | – | – | – | – | –
m1 = 1.827 | 1600.5 | 1610.1 | 1617.9 | 1625.4 | 1631.9 | 3.232 | 2.765 | 2.4 | 2.098 | 1.859
m1 = 2.131 | 1632 | 1639.7 | 1645.2 | 1650.6 | – | 3.587 | 3.062 | 2.663 | 2.33 | 2.064
m1 = 2.493 | 1664.6 | 1670.1 | 1675.2 | 1677.8 | – | – | – | – | – | –
m1 = 2.584 | – | – | – | – | – | 4.348 | 3.696 | 3.207 | 2.821 | 2.471
m1 = 2.793 | 1693.2 | 1696.9 | 1700.3 | 1703.5 | – | – | – | – | – | –
m1 = 3.096 | – | – | – | – | – | 5.355 | 4.538 | 3.946 | 3.408 | 3.002
m1 = 3.118 | 1721.2 | 1723.7 | 1725.7 | 1727.3 | – | – | – | – | – | –
m1 = 3.17 | 1730.6 | 1733 | 1734.2 | 1735.3 | – | – | – | – | – | –
m1 = 3.329 | – | – | – | – | – | 5.964 | 5.056 | 4.336 | 3.754 | 3.308
m1 = 3.501 | 1752.4 | 1753.7 | 1754.9 | 1755.4 | – | – | – | – | – | –
m1 = 3.704 | – | – | – | – | – | 6.966 | 5.857 | 5.02 | 4.345 | 3.807
m1 = 3.757 | 1771.9 | 1772.4 | 1771.9 | 1771.3 | – | – | – | – | – | –
m1 = 4.039 | – | – | – | – | – | 8.21 | 6.897 | 5.864 | 5.051 | 4.432
m1 = 4.051 | 1791.3 | 1791.4 | 1790.4 | 1789.6 | – | – | – | – | – | –
m1 = 4.285 | 1808.5 | 1807.3 | 1806.3 | 1804.5 | – | – | – | – | – | –
m1 = 4.403 | 1820.2 | 1815.4 | 1813.5 | 1810.8 | – | – | – | – | – | –
m1 = 4.728 | – | – | – | – | – | 11.85 | 9.74 | 8.233 | 7.067 | 6.098
m1 = 4.883 | – | – | 1847.2 | 1842.3 | – | – | – | – | – | –
m1 = 4.907 | – | – | – | – | – | – | – | – | 7.798 | 6.799
